Measurements as given in the NIST ThermoML archive (doi:10.1021/je800012v).

Assay: xn = mol fraction of the nth substance listed
Conditions: Liquid

CCCCCl [1-chlorobutane] + CCCCCC
mass density [kg/m3]
Conditions | x1 = 0.1099 | x1 = 0.212 | x1 = 0.2925 | x1 = 0.316 | x1 = 0.405 | x1 = 0.4978 | x1 = 0.5975 | x1 = 0.6869 | x1 = 0.8294 | x1 = 0.9025
283.15 K, 100 kPa | 688.16 | 707.78 | 724.14 | 728.91 | 747.8 | 768.4 | 791.4 | 813.19 | 849.71 | 869.66
283.15 K, 2500 kPa | 690.51 | 710.17 | 726.49 | 731.23 | 750.19 | 770.77 | 793.76 | 815.54 | 852.04 | 871.97
283.15 K, 5000 kPa | 692.85 | 712.52 | 728.83 | 733.62 | 752.56 | 773.13 | 796.11 | 817.89 | 854.38 | 874.31
283.15 K, 10000 kPa | 697.27 | 716.94 | 733.31 | 738.08 | 757.05 | 777.64 | 800.62 | 822.39 | 858.86 | 878.8
283.15 K, 15000 kPa | 701.44 | 721.17 | 737.55 | 742.33 | 761.32 | 781.91 | 804.89 | 826.69 | 863.18 | 883.07
283.15 K, 20000 kPa | 705.42 | 725.18 | 741.57 | 746.36 | 765.38 | 785.99 | 808.98 | 830.8 | 867.28 | 887.19
283.15 K, 25000 kPa | 709.18 | 728.95 | 745.4 | 750.17 | 769.24 | 789.87 | 812.89 | 834.7 | 871.21 | 891.13
283.15 K, 30000 kPa | 712.77 | 732.59 | 749.06 | 753.86 | 772.94 | 793.59 | 816.62 | 838.47 | 875.01 | 894.92
283.15 K, 35000 kPa | 716.2 | 736.03 | 752.55 | 757.33 | 776.47 | 797.15 | 820.23 | 842.08 | 878.63 | 898.57
293.15 K, 100 kPa | 679 | 698.47 | 714.61 | 719.31 | 738.08 | 758.47 | 781.32 | 802.85 | 839.13 | 858.87
293.15 K, 2500 kPa | 681.5 | 701.01 | 717.13 | 721.84 | 740.6 | 761 | 783.84 | 805.38 | 841.63 | 861.35
293.15 K, 5000 kPa | 684.03 | 703.52 | 719.69 | 724.38 | 743.13 | 763.54 | 786.39 | 807.91 | 844.15 | 863.85
293.15 K, 10000 kPa | 688.77 | 708.3 | 724.48 | 729.18 | 747.97 | 768.33 | 791.18 | 812.71 | 848.93 | 868.63
293.15 K, 15000 kPa | 693.23 | 712.77 | 728.99 | 733.71 | 752.5 | 772.88 | 795.72 | 817.27 | 853.49 | 873.18
293.15 K, 20000 kPa | 697.41 | 717.01 | 733.23 | 737.99 | 756.78 | 777.19 | 800.04 | 821.6 | 857.83 | 877.51
293.15 K, 25000 kPa | 701.41 | 721.03 | 737.29 | 742.03 | 760.9 | 781.3 | 804.2 | 825.76 | 861.98 | 881.68
293.15 K, 30000 kPa | 705.17 | 724.84 | 741.13 | 745.88 | 764.76 | 785.2 | 808.12 | 829.7 | 865.95 | 885.66
293.15 K, 35000 kPa | 708.81 | 728.53 | 744.84 | 749.61 | 768.53 | 788.98 | 811.92 | 833.53 | 869.81 | 889.53
298.15 K, 100 kPa | 674.32 | 693.72 | 709.76 | 714.52 | 733.09 | 753.4 | 776.16 | 797.59 | 833.73 | 853.37
298.15 K, 2500 kPa | 676.93 | 696.34 | 712.38 | 717.11 | 735.72 | 756.03 | 778.78 | 800.23 | 836.3 | 855.94
298.15 K, 5000 kPa | 679.56 | 698.96 | 715.02 | 719.75 | 738.37 | 758.67 | 781.41 | 802.86 | 838.91 | 858.53
298.15 K, 10000 kPa | 684.48 | 703.92 | 719.98 | 724.72 | 743.38 | 763.66 | 786.38 | 807.84 | 843.87 | 863.49
298.15 K, 15000 kPa | 689.11 | 708.6 | 724.66 | 729.39 | 748.1 | 768.37 | 791.12 | 812.57 | 848.59 | 868.18
298.15 K, 20000 kPa | 693.45 | 712.95 | 729.06 | 733.8 | 752.52 | 772.82 | 795.57 | 817.04 | 853.07 | 872.66
298.15 K, 25000 kPa | 697.55 | 717.1 | 733.24 | 737.94 | 756.74 | 777.05 | 799.82 | 821.3 | 857.35 | 876.94
298.15 K, 30000 kPa | 701.45 | 721.06 | 737.22 | 741.91 | 760.75 | 781.09 | 803.9 | 825.39 | 861.46 | 881.06
298.15 K, 35000 kPa | 705.16 | 724.8 | 741 | 745.72 | 764.57 | 784.94 | 807.76 | 829.27 | 865.37 | 884.99
303.15 K, 100 kPa | 669.66 | 689.16 | 704.96 | 709.76 | 728.25 | 748.32 | 770.96 | 792.32 | 828.52 | 847.81
303.15 K, 2500 kPa | 672.37 | 691.9 | 707.69 | 712.51 | 730.98 | 751.02 | 773.66 | 795.01 | 831.2 | 850.48
303.15 K, 5000 kPa | 675.06 | 694.62 | 710.41 | 715.21 | 733.71 | 753.76 | 776.4 | 797.74 | 833.88 | 853.16
303.15 K, 10000 kPa | 680.26 | 699.79 | 715.6 | 720.44 | 738.89 | 759.01 | 781.67 | 802.98 | 839.08 | 858.38
303.15 K, 15000 kPa | 685.01 | 704.53 | 720.39 | 725.23 | 743.69 | – | – | – | – | –
